Measured values reported in patent US8673913B2, “SHP-2 phosphatase inhibitor” (Case Western Reserve University, priority 2009, dated 2014).

How the values were obtained:
[1] = tested on: mouse embryonic fibroblasts, wildtype and SHP-2 E76K mutant; test: cell proliferation assay, embryonic fibroblasts wildtype and SHP-2 E76K (MTS); assay type: cell-based; details: 48 hours
Description: (§1) To test the effects of the active compounds on SHP-2-mediated cellular proliferation, Ba/F3, an IL-3 dependent hematopoietic cell line, mouse embryonic fibroblasts (MEFs), and H661 lung cancer cell line with SHP-2 activating mutation N58S were used for the assays. Cells were seeded into 96-well plates (2×10^4 cells/well) in the RPMI-1640 (for Ba/F3 cells) or DMEM (for MEFs and H661 cells) medium supplemented with 10% fetal bovine serum (FBS) and test compounds at various concentrations. For the Ba/F3 cell assay, recombinant mouse IL-3 (1 ng/mL) was included in the culture medium. Two days later, cell number was determined using the MTS cell proliferation kit (Promega Life Science, Madison, Wis.).
Mouse embryonic fibroblasts, wildtype and SHP-2 E76K mutant, were cultured in DMEM medium supplemented with active compounds at the indicated concentrations. DMSO was included at negative controls. Cell numbers were determined 48 hours later using the MTS assay. Shown are the results of a representative compound #324.

[2] = tested on: myeloid progenitors, wildtype and SHP-2 E76K; test: hematopoietic progenitor cell colony formation assay (CFU-GM); assay type: cell-based, mouse
Description: To determine cellular response of myeloid progenitors to IL-3, bone marrow cells (5×10^4 cells/ml) freshly harvested from C57BL6 mice were assayed for colony forming units (CFUs) in 0.9% methylcellulose IMDM medium containing 30% FBS, glutamine (10^−4 M), β-mercaptoethanol (3.3×10^−5 M), and IL-3 (10 ng/ml). After 7 days of culture at 37° C. in a humidified 5% CO2 incubator, hematopoietic cell colonies (primarily CFU-GM) were counted under an inverted microscope.
FIG. 13 illustrates A). […] Bone marrow cells were harvested from wildtype and mutant mice with SHP-2 E76K mutation. IL-3 induced myeloid progenitor cell colony (CFU-GM) formation assays were performed as described in the Examples in the presence of various concentrations of active compounds. Shown are the results of a representative compound #324. B). Inhibition of growth factor-independent colony formation of myeloid progenitors with SHP-2 activating mutation E76K by active compounds. Bone marrow cells were harvested from wildtype and mutant mice with SHP-2 E76K mutation. The cells were assayed for CFU-GM without cytokines in the presence of various concentrations of active compounds. Shown are the results of a representative compound #324.

[3] = target: T1, GST-PTP-MEG2 PTP domain (PTPN9) (Homo sapiens, UniProt P43378); test: in vitro phosphatase assay, PTP-MEG2; assay type: biochemical
T1 construct: GST-PTP-MEG2 PTP domain; purchased Biomol International, L.P. (Plymouth Meeting, Pa.)
T1 sequence (P43378 303-574 limits assumed): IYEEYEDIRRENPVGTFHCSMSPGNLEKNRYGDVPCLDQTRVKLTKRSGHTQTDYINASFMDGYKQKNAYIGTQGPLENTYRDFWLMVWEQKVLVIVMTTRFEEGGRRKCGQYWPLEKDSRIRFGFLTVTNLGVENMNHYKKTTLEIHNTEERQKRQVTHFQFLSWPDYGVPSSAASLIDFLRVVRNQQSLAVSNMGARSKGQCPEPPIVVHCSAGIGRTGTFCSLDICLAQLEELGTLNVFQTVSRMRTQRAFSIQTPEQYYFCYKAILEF
Description: (§2) Candidate compounds were screened using the in vitro protein tyrosine phosphatase (PTP) assay kit (Sigma, St. Lois, Mo.). […] The assay determines free phosphate generated by dephosphorylation of the PTP substrate using the Malachite Green reagent. Briefly, 0.5 μg of GST-SHP-2 PTP was incubated in 40 μL assay buffer (25 mM Tris-HCl, PH7.4, 50 mM NaCl, 5 mM DTT, and 2.5 mM EDTA) with test compounds at various concentrations or DMSO at room temperature for 30 min. The PTP substrate was then added to a final concentration of 0.2 mM. The system was incubated at 30° C. for 30 min. Finally, 50 μl of Malachite Green solution was added and OD620 was measured after 5 min. In the phosphatase assays for SHP-1, CD45, TC-PTP, PTP-MEG2 (PTPN9), and LAR (PTPRF), procedures were similar, with the exception that GST-SHP-1, GST-CD45 cytoplasmic domain, GST-TC-PTP, GST-PTP-MEG2 PTP domain, and GST-LAR PTP domain purchased from Biomol International, L.P. (Plymouth Meeting, Pa.) were used instead as the enzymes.

[4] = tested on: H661 (SHP-2 N58S) and H596 lung cancer cells; test: cell proliferation assay, lung cancer cells (MTS); assay type: cell-based; details: indicated concentrations 48 hours; 10 μM time course
Description: as §1
FIG. 14 illustrates A). […] H661 and H596 cells were cultured in DMEM medium supplemented with active compounds at the indicated concentrations. DMSO was included at negative controls. Cell numbers were determined 48 hours later using the MTS assay. Shown are the results of a representative compound #324. B). […] H661 and H596 cells were cultured in DMEM medium supplemented with active compounds (10 μM) for the indicated periods of time. DMSO was included at negative controls. Cell numbers were determined using the MTS assay. Shown are the results of a representative compound #324.

[5] = target: T2, GST-CD45 cytoplasmic domain (Homo sapiens, UniProt P08575); test: in vitro phosphatase assay, CD45; assay type: biochemical; details: read-out: IC50 PTPRC (CD45)
T2 construct: GST-CD45 cytoplasmic domain; purchased Biomol International, L.P. (Plymouth Meeting, Pa.)
T2 sequence (P08575 599-1306 limits assumed): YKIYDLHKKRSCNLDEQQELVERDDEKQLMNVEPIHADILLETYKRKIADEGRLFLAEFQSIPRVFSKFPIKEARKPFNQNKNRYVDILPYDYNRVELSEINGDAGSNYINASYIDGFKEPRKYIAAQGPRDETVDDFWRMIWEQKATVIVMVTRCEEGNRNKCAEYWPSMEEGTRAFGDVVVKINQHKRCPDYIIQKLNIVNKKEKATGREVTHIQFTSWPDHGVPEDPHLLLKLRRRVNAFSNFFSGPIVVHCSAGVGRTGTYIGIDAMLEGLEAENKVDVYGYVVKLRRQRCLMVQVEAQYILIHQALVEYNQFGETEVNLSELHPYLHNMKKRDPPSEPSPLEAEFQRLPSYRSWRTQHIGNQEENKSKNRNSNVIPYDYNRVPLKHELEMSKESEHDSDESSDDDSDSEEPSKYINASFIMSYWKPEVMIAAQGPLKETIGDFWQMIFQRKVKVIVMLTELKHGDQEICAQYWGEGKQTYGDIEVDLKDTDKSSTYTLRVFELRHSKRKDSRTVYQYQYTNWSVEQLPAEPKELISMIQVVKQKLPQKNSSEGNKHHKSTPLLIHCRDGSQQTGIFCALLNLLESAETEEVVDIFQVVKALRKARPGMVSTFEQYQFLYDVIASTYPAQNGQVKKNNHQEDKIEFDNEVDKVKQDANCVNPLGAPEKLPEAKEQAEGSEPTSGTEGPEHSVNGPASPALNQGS
Description: as §2

IC50 [3]: 177 µM
IC50 [5]: 182 µM
SMILES: Cc1cc(C)c2[nH]c3nc(SCC(=O)Nc4cccc5ccccc45)nnc3c2c1 [#324]
sensitivity of E76K fibroblasts versus wild type fibroblasts [1]: more sensitive
growth factor-independent colony formation of E76K myeloid progenitors ([2]; CFU-GM without cytokines): Inhibition
sensitivity of E76K myeloid progenitors versus wild type (IL-3 induced CFU-GM) ([2]; IL-3 induced colony formation): more sensitive
sensitivity of H661 (N58S) cells versus H596 cells [4]: more sensitive
